In patent US8440654B2, “Thieno- and furo-pyrimidine modulators of the histamine H4 receptor” (Janssen Pharmaceutica NV, priority 2007, dated 2013):
Counter-ions that a name gives are not always drawn.

What follows are compounds tested against T1, human histamine H4 receptor (Homo sapiens, UniProt Q9H3N8) (assay: Binding Assay on Recombinant Human Histamine H4 Receptor). Conditions: competition binding with 3H-histamine, membranes of SK-N-MC or COS7 cells transfected with human H4R; average of results obtained.
T1 construct: expressed in transfected cells; host or cells: SK-N-MC cells or COS7 cells, transiently transfected with pH4R; membrane preparation
Experimental: Biological Methods: Binding Assay on Recombinant Human Histamine H4 Receptor.
SK-N-MC cells or COS7 cells were transiently transfected with pH4R and grown in 150 cm^2 tissue culture dishes. Cells were washed with saline solution, scraped with a cell scraper and collected by centrifugation (1000 rpm, 5 min). Cell membranes were prepared by homogenization of the cell pellet in 20 mM Tris-HCl with a polytron tissue homogenizer for 10 sec at high speed. Homogenate was centrifuged at 1000 rpm for 5 min at 4° C. The supernatant was then collected and centrifuged at 20,000×g for 25 min at 4° C. The final pellet was resuspended in 50 mM Tris-HCl. Cell membranes were incubated with ^3H-histamine (5-70 nM) in the presence or absence of excess histamine (10,000 nM). Incubation occurred at room temperature for 45 min. Membranes were harvested by rapid filtration over Whatman GF/C filters and washed 4 times with ice-cold 50 mM Tris HCl. Filters were then dried, mixed with scintillant and counted for radioactivity. SK-N-MC or COS7 cells expressing human histamine H4 receptor were used to measure the affinity of binding of other compounds and their ability to displace ^3H-ligand binding by incubating the above-described reaction in the presence of various concentrations of inhibitor or compound to be tested. For competition binding studies using ^3H-histamine, K values were calculated, based on an experimentally determined KD value of 5 nM and a ligand concentration of 5 nM, according to Y.-C.

T1 sequence (Q9H3N8 whole entry): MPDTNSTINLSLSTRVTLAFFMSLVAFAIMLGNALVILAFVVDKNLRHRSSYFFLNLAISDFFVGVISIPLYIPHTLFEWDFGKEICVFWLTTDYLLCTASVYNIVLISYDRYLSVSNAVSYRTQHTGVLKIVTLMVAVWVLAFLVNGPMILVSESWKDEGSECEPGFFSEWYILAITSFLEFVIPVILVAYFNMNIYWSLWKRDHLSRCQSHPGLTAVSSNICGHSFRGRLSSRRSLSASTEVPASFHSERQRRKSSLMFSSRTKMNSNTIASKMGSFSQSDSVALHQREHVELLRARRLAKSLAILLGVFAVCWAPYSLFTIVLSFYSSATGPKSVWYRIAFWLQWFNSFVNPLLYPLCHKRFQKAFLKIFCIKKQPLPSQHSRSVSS

SMILES	Ki [nM]
Nc1nc(N2CCCNCC2)c2oc3c(c2n1)CC(F)(F)CC3 [Example 130, 4-(1,4-Diazepan-1-yl)-8,8-difluoro-6,7,8,9-tetrahydro[1]benzofuro[3,2-d]pyrimidin-2-amine (free amine)]	8.2
NCCNc1nc(N)nc2c3c(oc12)CCCC3 [Example 25, N4-(2-Aminoethyl)-6,7,8,9-tetrahydro[1]benzofuro[3,2-d]pyrimidine-2,4-diamine trifluoroacetic acid salt]	507
NCCN1CCN(c2nc(N)nc3c4c(sc23)CCCC4)CC1 [Example 49, 4-[4-(2-Aminoethyl)piper-azin-1-yl]-6,7,8,9-tetrahy-dro[1]benzothieno[3,2-d]pyrimidin-2-amine tri-fluoroacetic acid salt]	2260
NCCNc1ncnc2c3c(oc12)CCCC3 [Example 27, N-(6,7,8,9-Tetra-hydro[1]benzofuro[3,2-d]pyrimidin-4-yl]ethane-1,2-diamine]	> 10000
Nc1nc(N2C[C@H]3CCN[C@H]3C2)c2sc3c(c2n1)CCCC3 [Example 4, 4-[(3aR,6aR)-Hexahydropyrrolo[3,4-b]pyrrol-5(1H)-yl]-6,7,8,9-tetrahydro[1]benzothieno[3,2-d]pyrimidin-2-amine]	21
Nc1nc(N2C[C@H]3CCCN[C@H]3C2)c2oc3c(c2n1)CCCC3 [Example 20, 4-[(4aR,7aR)-Octahydro-6H-pyrrolo[3,4-b]pyridin-6-yl]-6,7,8,9-tetra-hydro[1]benzofuro[3,2-d]pyrimidin-2-amine trifluoroacetic acid salt]	5
CN1CCN(c2nc(N)nc3c4c(sc23)CCCCC4)CC1 [Example 46, 4-(4-Methylpiperazin-1-yl)-7,8,9,10-tetrahydro-6H-cyclohepta[4,5]thieno[3,2-d]pyrimidin-2-amine tri-fluoroacetic acid salt]	21
CC(C)(C)c1cc2nc(N)nc(N3CCNCC3)c2s1 [Example 17, 6-tert-Butyl-4-piperazin-1-ylthieno[3,2-d]pyrimidin-2-amine trifluoroacetic acid salt]	142
CN1CCN(c2nc(N)nc3c4c(oc23)CCC(F)(F)C4)CC1 [Example 123, 8,8-Difluoro-4-(4-methylpiperazin-1-yl)-6,7,8,9-tetrahydro[1]benzofuro[3,2-d]pyrimidin-2-amine trifluoroacetate]	15
Nc1nc(N2CC[C@@H](N)C2)c2oc3c(c2n1)CC(F)(F)CC3 [Example 117, 4-[(3R)-3-Aminopyrrolidin-1-yl]-8,8-difluoro-6,7,8,9-tetrahydro[1]benzofuro[3,2-d]pyrimidin-2-amine hydrochloride]	6.8
Nc1nc(N2C[C@H]3CCN[C@H]3C2)c2oc3c(c2n1)CCCC3 [Example 7, 4-[(3aR,6aR)-Hexahydropyrrolo[3,4-b]pyrrol-5(1H)-yl]-6,7,8,9-tetrahydro[1]benzofuro[3,2-d]pyrimidin-2-amine]	3
CNC1CCN(c2nc(N)nc3c4c(sc23)CCCCC4)C1 (stereo in doubt) [Example 47, trifluoroacetic acid salt]	5
Nc1nc(N2C[C@H]3C[C@@H]2CN3)c2sc3c(c2n1)CCCC3 [Example 36, 4-[(1R,4R)-2,5-Diazabicy-clo[2.2.1]hept-2-yl]-6,7,8,9-tetrahydro[1]benzothi-eno[3,2-d]pyrimidin-2-amine]	> 10000
Nc1nc(N2CCn3cnnc3C2)c2sc3c(c2n1)CCCC3 [Example 54, 4-(5,6-Dihydro[1,2,4-a]pyrazin-7(8H)-yl)-6,7,8,9-tetrahydro[1]benzothieno[3,2-d]pyrimidin-2-amine trifluoroacetic acid salt]	1610
